This is an account of results in patent publication US5171882A, “Leukotriene antagonists” (Eli Lilly and Company, priority 1990, dated 1992).

The target of this experiment is T1, specific receptor on the membrane of human neutrophils (leukotriene B4) (Homo sapiens, UniProt Q15722).
T1 construct: Freshly-prepared buffy coat layers from two individuals were obtained from a local blood donor center; endogenous in cells; host or cells: intact human peripheral blood neutrophils from buffy coats of two donors
T1 sequence (Q15722 whole entry): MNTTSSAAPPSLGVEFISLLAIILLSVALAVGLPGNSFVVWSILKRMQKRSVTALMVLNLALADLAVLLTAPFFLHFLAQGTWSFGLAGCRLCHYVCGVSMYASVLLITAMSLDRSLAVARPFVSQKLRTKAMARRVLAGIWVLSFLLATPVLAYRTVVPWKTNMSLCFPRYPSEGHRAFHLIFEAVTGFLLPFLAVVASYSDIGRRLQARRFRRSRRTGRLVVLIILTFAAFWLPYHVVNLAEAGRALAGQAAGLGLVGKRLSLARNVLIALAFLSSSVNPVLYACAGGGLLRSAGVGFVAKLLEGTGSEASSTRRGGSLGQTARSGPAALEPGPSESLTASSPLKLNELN
Put plainly: Inhibition of Binding of ^3 H-LTB4 to Peripheral Human Neutrophils. To be noted: for inhibition at 10 µM / inhibition at 1 µM / inhibition at 0.1 µM: read-out: LTB4 Binding Inhibition; for inhibition at 0.1 µM: drug concentration 10^-7 M. On the procedure:
Cells used in the assay were isolated by standard techniques of centrifugation on Ficoll-Hypaque, dextran 70 sedimentation and hypotonic lysis. The following procedure was used. Freshly-prepared buffy coat layers from two individuals were obtained from a local blood donor center. The cells were mixed and diluted to 484 ml with phosphate buffered saline containing heparin (10 units/ml) and heat-inactivated calf serum (5%). This was divided into 20 ml aliquots and the aliquots layered on top of Ficoll-Paque (12 ml). The material was then centrifuged at 500 g for 40 minutes at room temperature. The resulting upper layer of platelets and mononuclear cells was discarded. The lower layer containing erythrocytes and neutrophils was retained. Buffer was added (1 ml per 4 ml of lower layer) and the suspension mixed. For each milliliter of this mixture, 0.33 ml of 6% Macrodex was added. After stirring, the cells were allowed to sediment for 1 hour at 37° C. The resulting erythrocyte pellet was discarded and the neutrophil enriched supernatant fluid centrifuged at 500 g for 10 minutes at 4° C. Erythrocytes still present in this cell pellet were lysed by incubating the cells with 5-8 ml ice-cold distilled water for 30-45 seconds. Subsequently, the volume was made up to 50 ml by addition of ice-cold buffer and the cells resuspended. The suspension was then centrifuged at 300 g for 10 minutes at 4° C. The cells were finally resuspended at a cell density of 2×10^7 cells/ml in the assay buffer This buffer consisted of Hanks' balanced salt solution and 0.1% ovalbumin (pH 7.3).
The amount of bound ^3 H-LTB4 was then measured and compared with the amount bound in the absence of test compound. The assay was carried out in microcentrifuge tubes by adding first 10 μl test compound dissolved in DMSO, followed by adding 20 μl ^3 H-LTB4 diluted in assay buffer, and finally adding 500 μl of the cell suspension. At the end of the 10 minutes incubation, 300 μl of a mixture of dibutyl and dinonyl phthalate (7:2) were added and the tubes centrifuged for 2 minutes in a microcentrifuge. The radioactivity bound to the cell pellet was measured by scintillation spectroscopy. Appropriate corrections for nonspecific bonding of ^3 H-LTB4 were made.

The mark [1] stands for this setting: drug concentration 10^-5 M, 0.1-0.2 nM ^3 H-LTB4, 10 minutes at 4° C.
The mark [2] stands for this setting: drug concentration 10^-6 M, 0.1-0.2 nM ^3 H-LTB4, 10 minutes at 4° C.
[3] abbreviates: 0.1-0.2 nM ^3 H-LTB4, 10 minutes at 4° C.

Like-named read-outs stand apart in the source and are kept apart here.

In the case of `CCCCCCCCCCOc1ccc(C(=O)c2cccc(C(=O)OCC)c2)cc1Cc1nnn[nH]1` [Example 2, 3-[4-(Decyloxy)-3-(1H-tetrazol-5-ylmethyl)-benzoyl]benzoic acid, ethyl ester], under setting [1], the inhibition at 10 µM is -11%. In addition, the inhibition at 1 µM under setting [2] was found to be 14%.

With `CCCCCCCCCCOc1ccc(C(=O)c2cccc(C(=O)OCC)c2)cc1CC(=O)OCC` [Example 4, 2-(Decyloxy)-5-[3-(ethoxycarbonyl)benzoyl]benzeneacetic acid, ethyl ester], the inhibition at 10 µM under setting [1] was -5%. Besides, the inhibition at 1 µM under setting [2] is -1%.

On to `CCCCCCCCCCOc1ccc(C(=O)c2cccc(C#N)c2)cc1CC#N` [Example 12, 5-(3-Cyanobenzoyl)-2-(decyloxy)benzeneacetonitrile], for which the inhibition at 10 µM under setting [1] was 3%. Also, the inhibition at 1 µM under setting [2] was -1%.

With `CCCCCCCCCCOc1ccc(C(=O)c2cccc(-c3nnn[nH]3)c2)cc1CC(=O)OCC` [Example 15, 2-(Decyloxy)-5-[3-(1H-tetrazol-5-yl)benzoyl]benzeneacetic acid, ethyl ester], the inhibition at 10 µM under setting [1] was -13%. In addition, the inhibition at 1 µM under setting [2] worked out at 1%.

Regarding `CCCCCCCCCCOc1ccc(C(=O)c2cccc(-c3nnn[nH]3)c2)cc1Cc1nnn[nH]1` [Example 17, [4-(Decyloxy)-3-(1H-tetrazol-5-ylmethyl)phenyl][3-(1H-tetrazol-5-yl)phenyl]methanone], under setting [1], the inhibition at 10 µM came to 81%. For the same compound, the inhibition at 1 µM under setting [2] stood at 20%.

In the case of `CCCCCCCCCCCCCCOc1ccc(C(=O)c2cccc(C(=O)O)c2)cc1CC(=O)O` [Example 26, 5-(3-Carboxybenzoyl)-2-(tetradecyloxy)benzeneacetic acid], under setting [1], the inhibition at 10 µM came to 63%. Moreover, under setting [2], the inhibition at 1 µM came to 10%.

Consider `CCCCCCCCCCCCOc1ccc(C(=O)c2cccc(C(=O)O)c2)cc1CC(=O)O` [Example 27, 5-(3-Carboxybenzoyl)-2-(dodecyloxy)benzeneacetic acid], for which the inhibition at 10 µM under setting [1] amounted to 80%. The inhibition at 1 µM under setting [2] was 18%.

Regarding `CCCCCCCCCCOc1ccc(C(=O)c2ccccc2C(=O)O)cc1CC(=O)OCC` [Example 32, 5-(2-Carboxybenzoyl)-2-(decyloxy)benzeneacetic acid, ethyl ester], the inhibition at 10 µM under setting [1] is 19%. Further, the inhibition at 1 µM under setting [2] is -6%.

As to `CCCCCCCCCCOc1ccc(C(=O)c2ccccc2C(=O)O)cc1CC(=O)O` [Example 35, 5-(2-Carboxybenzoyl)-2-(decyloxy)benzeneacetic acid], the “LTB4 Binding Inhibition” value turned out to be 53 percent inhibition under setting [1] and 2 percent inhibition under setting [2].

Consider `CCCCCCCCCCOc1ccc(C(O)c2cccc(C(=O)OCC)c2)cc1CC(=O)OCC` (stereo not drawn) [Example 40, 2-(Decyloxy)-5-{[3-(ethoxycarbonyl)phenyl]hxdroxymethyl}benzeneacetic acid, ethyl ester], for which the inhibition at 10 µM under setting [1] was -14%. Moreover, the inhibition at 1 µM under setting [2] is -10%.

Take `CCCCCCCCOc1ccc(C(O)c2cccc(C(=O)O)c2)cc1CC(=O)O` (stereo not drawn) [Example 44, 5-[(3-Carboxyphenyl)hydroxymethyl]-2-(octyloxy)benzeneacetic acid]: the inhibition at 10 µM under setting [1] came to 41%. For the same compound, the inhibition at 1 µM under setting [2] worked out at 11%.

In the case of `CCCCCCCCCCOc1ccc(Cc2cccc(C(=O)O)c2)cc1CCC(=O)O` [Example 50, 5-[(3-Carboxyphenyl)methyl]-2-(decyloxy)benzenepropanoic acid], the inhibition at 10 µM under setting [1] was determined as 88%. Moreover, the inhibition at 1 µM under setting [2] was found to be 41%.

With `O=C(O)CCc1cc(C(=O)c2cccc(C(=O)O)c2)ccc1OCCCCC=Cc1ccccc1` [Example 76, 5-(3-Carboxybenzoyl)-2-[6-(phenyl-5-hexenyl)oxy]benzenepropanoic acid], under setting [1], the inhibition at 10 µM was determined as 96%. Further, under setting [2], the inhibition at 1 µM was found to be 91%. Besides, under setting [3], the inhibition at 0.1 µM stood at 36%.

For the compound `O=C(O)CCc1cc(C(=O)c2cccc(C(=O)O)c2)ccc1OCCCC[S+]([O-])c1ccccc1` (stereo not drawn) [Example 77, 5-(3-Carboxybenzoyl)-2-[4-(phenylsulfinyl)-butoxy]benzenepropanoic acid], the inhibition at 10 µM under setting [1] was found to be 22%. Further, the inhibition at 1 µM under setting [2] was determined as 8%.

Turning to `O=C(O)CCc1cc(C(=O)c2cccc(C(=O)O)c2)ccc1OCCCCS(=O)(=O)c1ccccc1` [Example 78, 5-(3-Carboxybenzoyl)-2-[4-(phenylsulfonyl)-butoxy]benzenepropanoic acid], the inhibition at 10 µM under setting [1] came out at 18%. In addition, the inhibition at 1 µM under setting [2] was 4%.

Regarding `COc1ccc(CCCCCCOc2ccc(C(=O)c3cccc(C(=O)O)c3)cc2CCC(=O)O)cc1` [Example 80, 5-(3-Carboxybenzoyl)-2-{[6-(4-methoxyphenyl)-hexyl]oxy}benzenepropanoicacid], under setting [1], the inhibition at 10 µM came to 105%. For the same compound, the inhibition at 1 µM under setting [2] stood at 98%. The inhibition at 0.1 µM under setting [3] amounted to 68%.

For the compound `O=C(O)CCc1cc(C(=O)c2cccc(C(=O)O)c2)ccc1OCCCCCCc1ccc(F)cc1` [Example 82, 5-(3-Carboxybenzoyl)-2-{[6-(4-fluorophenyl)hexyl]oxy}benzenepropanoic acid], the inhibition at 10 µM under setting [1] worked out at 104%. Besides, the inhibition at 1 µM under setting [2] was 81%. For the same compound, the inhibition at 0.1 µM under setting [3] stood at 22%.

As to `CSc1ccc(C=CCCCCOc2ccc(C(=O)c3cccc(C(=O)O)c3)cc2CCC(=O)O)cc1` [Example 83, 5-(3-Carboxybenzoyl)-2-{[6-(4-methylmercaptophenyl)-5-hexenyl]oxy}benzenepropanoic acid], the inhibition at 10 µM under setting [1] came to 103%. Besides, the inhibition at 1 µM under setting [2] is 79%. Further, the inhibition at 0.1 µM under setting [3] is 18%.

In the case of `COc1cccc(C=CCCCCOc2ccc(C(=O)c3cccc(C(=O)O)c3)cc2CCC(=O)O)c1` [Example 84, 5-(3-Carboxybenzoyl)-2-{[6-(3-methoxyphenyl)-5-hexenyl]oxy}benzenepropanoic acid], the inhibition at 10 µM under setting [1] was 99%. Further, under setting [2], the inhibition at 1 µM stood at 91%. For the same compound, the inhibition at 0.1 µM under setting [3] amounted to 49%.

Consider `COc1ccccc1C=CCCCCOc1ccc(C(=O)c2cccc(C(=O)O)c2)cc1CCC(=O)O` [Example 85, 5-(3-Carboxybenzoyl)-2-{[6-(2-methoxyphenyl)-5-hexenyl]oxy}benzenepropanoic acid], for which the inhibition at 1 µM was determined as 97%. For the same compound, the inhibition at 10 µM under setting [1] amounted to 101%. Moreover, the inhibition at 0.1 µM under setting [3] worked out at 86%.

As to `COc1cccc(CCCCCCOc2ccc(C(=O)c3cccc(C(=O)O)c3)cc2CCC(=O)O)c1` [Example 86, 5-(3-Carboxybenzoyl)-2-{[6-(3-methoxyphenyl)hexyl]oxy}benzenepropanoic acid], under setting [1], the inhibition at 10 µM was determined as 95%. Further, under setting [2], the inhibition at 1 µM was found to be 88%. For the same compound, under setting [3], the inhibition at 0.1 µM was 46%.

Turning to `COc1ccccc1CCCCCCOc1ccc(C(=O)c2cccc(C(=O)O)c2)cc1CCC(=O)O` [Example 87, 5-(3-Carboxybenzoyl)-2-{[6-(2-methoxyphenyl)hexyl]oxy}benzenepropanoic acid], the inhibition at 10 µM is 100%. For the same compound, the inhibition at 1 µM under setting [2] amounted to 91%. Moreover, the inhibition at 0.1 µM under setting [3] was found to be 34%.

For the compound `CS(=O)(=O)c1ccc(C=CCCCCOc2ccc(C(=O)c3cccc(C(=O)O)c3)cc2CCC(=O)O)cc1` [Example 91, 5-(3-Carboxybenzoyl)-2-{[6-(4-methylsulfonylphenyl)-5-hexenyl]oxy}benzenepropanoic acid], under setting [1], the inhibition at 10 µM came out at 98%. Further, under setting [2], the inhibition at 1 µM was 88%. In addition, under setting [3], the inhibition at 0.1 µM stood at 60%.

For `CC(=O)c1ccc(CCCCCCOc2ccc(C(=O)c3cccc(C(=O)O)c3)cc2CCC(=O)O)cc1` [Example 101, 2-{[6-(4-Acetylphenyl)hexyl]oxy}-5-(3-carboxybenzoyl]benzenepropanoic acid], the inhibition at 1 µM under setting [2] is 88%. In addition, under setting [3], the inhibition at 0.1 µM turned out to be 46%.

For `O=C(O)CCc1cc(NC(=O)c2cccc(C(=O)O)c2)ccc1OCCCCCCc1ccccc1` [Example 102], under setting [1], the inhibition at 10 µM is 98%. In addition, the inhibition at 1 µM under setting [2] stood at 72%. Further, the inhibition at 0.1 µM under setting [3] came to 18%.

In general, inhibition refers to the relative decrease from the control value, in per cent.
